Laboratory results as given in publication PMC6272295, “In Vitro Neuroprotective Activities of Compounds from Angelica shikokiana Makino” (Molecules, 2015).
Read-outs that look alike come from different tables or passages of the source.

What was measured:
[1] = test system: neuro-2A cells; assay: Protection against H2O2-induced neurotoxicity (MTT); format: cell-based, Mouse; settings: for neuroprotection against H2O2-induced neurotoxicity (in words): 6.25-100 µM, H2O2 150 µM; for Protection against H2O2: summary Table 4
Description: (§1) Neuro-2A cell line was maintained in Eagle’s Minimum Essential medium supplemented with 10% fetal bovine serum, 1% of 100× antibiotic—antimitotic agents (containing penicillin and streptomycin) in a humid atmosphere of 5% (v/v) CO2 and 95% (v/v) air at 37 °C. Neuro-2A cells were plated in 96-well cell culture plates at a density of 3 × 10^4 cells/well for H2O2 and intracellular ROS assays and 2.5 × 10^3 cells/well for the Aβ25-35-assay.
Cell viability was determined by MTT reduction assay. Briefly, after treatment with isolated compounds, the media was replaced by fresh one after washing the cells with 100 µL PBS and 20 µL of MTT (5 mg/mL) was added to each well. After 4 h incubation at 37 °C, the state of cells was checked under microscope to confirm either cytotoxicity in H2O2 and Aβ25-35 wells or protection in positive controls and isolated compounds ones. The supernatants were aspirated carefully, and 150 µL of DMSO was added to each well to dissolve the dark blue formazan crystals. The absorbance was measured using a microplate reader at 570 nm.
H2O2 interacts with metals in the medium, producing highly cytotoxic hydroxyl radicals that induce neurotoxicity. So, active compounds are those that can scavenge free radicals and increase the cell viability. This assay was performed as previously described with slight modifications. Briefly, the concentration of H2O2 that decreased cell viability to about 50% was determined as follows: cells were cultured in a 96-well plate and after 24 h were further incubated with different concentrations of H2O2 (50, 100, 150, 200 µM) freshly prepared from 30% stock solution. After 24 h, cell viability was determined using the MTT reduction method. H2O2 at a concentration of 150 µM had the desired cytotoxicity and was used for the next step.

[2] = test system: intracellular ROS in Neuro-2A cells; assay: Scavenging of intracellular reactive oxygen species (Bes-H2O2-AC, DFF fluorescence); format: cell-based, Mouse; settings: for decrease of DFF fluorescence intensity (intracellular ROS): only at the higher concentration of 100 µM, H2O2 600 µM 30 min; for Intracellular ROS Scavenging: summary Table 4; as to Intracellular ROS Scavenging: key: +: Weak activity; ++: Strong activity
Description: as §1
This assay was performed as previously described with some modifications. Briefly, Neuro-2A cells were seeded in 96-well Clear Fluorescence Black Plate (number 655090, Greiner Bio-one, Tokyo, Japan). Cells were treated with three different concentrations (25, 50, 100 µM) of the samples. After 2 h incubation, cells were subjected to oxidative stress using 600 µM of H2O2 for 30 min. The nucleus was stained by Hoechst 33342 (Dojindo, Kumamoto, Japan), and the amount of difluorofluorescein (DFF) released from the reaction of H2O2 and BES-H2O2-Ac was taken as an indication of the amount of intracellular H2O2 and ROS. Images of each well were acquired using an IN Cell Analyzer 1000 (GE Healthcare, Buckinghamshire, UK) using 360-nm (Hoechst 33342) and 480-nm (BES-H2O2-Ac) excitation filters and monitored through 460-nm and 535-nm emission filters, respectively. Developer software was used to analyze the images of Hoechst 33342 and BES-H2O2-Ac staining, and the resulting data were then applied to Spotfire Decision Site Client 8.2 software for visualizing the results.

[3] = Scavenging of hydroxyl radical, 2-deoxyribose degradation assay; as to Hydroxyl Radical Scavenging (grade): key: +: Weak activity; ++: Strong activity
Description: The inhibitory effect of bioactive compounds on deoxyribose degradation was determined by measuring the competition between deoxyribose and bioactive compounds for the hydroxyl radicals (^.OH) generated from the Fe^3+/ascorbate/EDTA/H2O2 system (referred to non-site-specific assay; the major activity measured is ^.OH scavenging) or an Fe^3+/ascorbate/H2O2 system (referred to as a site-specific assay; major activity measured is metal chelation). Both assays depend on the formation of a highly reactive hydroxyl radical, OH, by the interaction of iron ions with H2O2 through Fenton’s reaction. […] This assay was performed as previously described. Different concentrations of tested compounds were dissolved in 400 µL phosphate buffer (0.2 M, pH 7.4). Then, 50 µL of deoxyribose (60 mM), 50 µL of Na2EDTA (2 mM), 50 µL of FeCl3 (3.2 mM), 50 µL of H2O2 (60 mM) and 50 µL of ascorbic acid (2 mM) were added, and the total volume of the reaction mixture was adjusted to 1 mL with buffer. After water-bath incubation at 50 °C for 25 min, the reaction was terminated by 250 µL of trichloroacetic acid (10%, w/w). […] For site-specific hydroxyl-radical-scavenging activity, the reaction mixture was similar to the above method, except that EDTA was replaced by an equivalent volume of buffer.
IC50 values of isolated compounds in AChEI and scavenging of hydroxyl radical assays were calculated using Probit Analysis (SPSS Version 16.0 for Windows, SPSS Inc., Chicago, IL, USA) for five different concentrations in three independent experiments. Cell viability was expressed as a percentage of MTT reduction, assuming that the viability of cells treated with 1% DMSO as a negative control was 100%. […] All values are the mean ± SD of three independent experiments. Data were analyzed for statistical significance using one-way ANOVA, followed by Dunnet’s test as a post-hoc test with GraphPad Prism 5.0 software for Windows (Inc., San Diego, CA, USA).

[4] = Fe3+/ascorbate/EDTA/H2O2 system, read-out: IC50 hydroxyl radical scavenging, Non Site-Specific
[5] = Fe3+/ascorbate/H2O2 system without EDTA, read-out: IC50 hydroxyl radical scavenging, Site-Specific
[6] = summary Table 4 (values of the non site-specific assay), read-out: Hydroxyl Radical Scavenging/IC50

| SMILES | neuroprotection against H2O2-induced neurotoxicity (in words) [1] | Protection against H2O2 [1] | decrease of DFF fluorescence intensity (intracellular ROS) [2] | Intracellular ROS Scavenging [2] | % Inhibition of deoxyribose degradation, Non Site-Specific ([3]; at 300 µM (maximum solubility in phosphate buffer)) | Hydroxyl Radical Scavenging (grade) ([3]; summary Table 4) | IC50 [3, 4] | IC50 [3, 5] | IC50 [3, 6] |
| --- | --- | --- | --- | --- | --- | --- | --- | --- | --- |
| CC(=O)OC1c2c(ccc3ccc(=O)oc23)OC(C)(C)C1OC(=O)C(C)(O)C(C)O (stereo not shown) [Hyuganin E (6), hyuganin E] | significant (p < 0.05) increase in cell viability at 100 µM | + | decrease the fluorescence intensity | + | 37.5 ± 3.5% | + |  |  |  |
| O=c1c(O)c(-c2ccc(O)cc2)oc2cc(O)cc(O)c12 [Kaempferol (8), kaempferol] | significant (p < 0.05) increase in cell viability at 100 µM | + | decrease the fluorescence intensity | + |  |  | 720 ± 7.9 µM | 901 ± 17.9 µM | 720 ± 7.9 µM |
| O=c1c(OC2OC(CO)C(O)C(O)C2O)c(-c2ccc(O)cc2)oc2cc(O)cc(O)c12 (stereo not shown) [Kaempferol-3-O-glucoside (13), kaempferol-3-O-glucoside] | significant (p < 0.05) increase in cell viability at 100 µM | + |  | + |  |  | 1150 ± 6.7 µM | 1300 ± 24.3 µM | 1150 ± 6.7 µM |
